{
  "source": "patent US8895579B2",
  "about": "“Heterotricyclic AMPA receptor antagonists for treatment of epilepsy, pain, and other neurological disorders and diseases” (Northwestern University, priority 2010, dated 2014)",
  "target": "T1, recombinant homomeric GluA4 AMPA receptor (Rattus norvegicus, UniProt P19493)",
  "T1 construct": "expressed in transfected cells; host or cells: HEK293-T/17 (CRL-11268)",
  "T1 sequence (P19493 21-902 isoform P19493-2 limits assumed)": "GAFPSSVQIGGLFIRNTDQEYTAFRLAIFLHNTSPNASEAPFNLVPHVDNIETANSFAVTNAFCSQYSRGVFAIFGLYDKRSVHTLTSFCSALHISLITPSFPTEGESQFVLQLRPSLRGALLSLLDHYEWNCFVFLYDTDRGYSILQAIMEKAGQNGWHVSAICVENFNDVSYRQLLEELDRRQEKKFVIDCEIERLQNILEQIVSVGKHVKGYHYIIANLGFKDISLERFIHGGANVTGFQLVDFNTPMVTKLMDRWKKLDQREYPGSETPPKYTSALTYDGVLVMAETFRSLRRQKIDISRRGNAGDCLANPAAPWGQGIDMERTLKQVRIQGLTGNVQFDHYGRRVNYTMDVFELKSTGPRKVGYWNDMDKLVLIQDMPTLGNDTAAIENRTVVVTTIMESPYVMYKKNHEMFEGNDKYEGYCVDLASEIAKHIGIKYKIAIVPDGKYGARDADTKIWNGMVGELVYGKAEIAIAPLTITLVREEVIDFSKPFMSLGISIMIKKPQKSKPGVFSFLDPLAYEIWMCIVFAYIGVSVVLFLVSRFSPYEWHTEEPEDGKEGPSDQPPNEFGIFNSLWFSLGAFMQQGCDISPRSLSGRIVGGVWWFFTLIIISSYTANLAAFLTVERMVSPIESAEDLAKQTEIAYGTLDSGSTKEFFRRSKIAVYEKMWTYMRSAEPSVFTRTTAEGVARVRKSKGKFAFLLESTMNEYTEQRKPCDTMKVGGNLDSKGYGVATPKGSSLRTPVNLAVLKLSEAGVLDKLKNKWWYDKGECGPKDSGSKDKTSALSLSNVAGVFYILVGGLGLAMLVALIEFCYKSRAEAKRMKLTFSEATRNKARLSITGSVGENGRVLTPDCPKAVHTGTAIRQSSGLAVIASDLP",
  "assay": "Whole-cell patch clamp of recombinant GluA4 receptors in HEK293-T/17 cells",
  "type": "cell-based",
  "details": "for inhibition at 30 µM: HEK293T/17, 30 μM",
  "description": "Cell Culture and Transfection. Human embryonic kidney cells expressing T-antigen, clone 17 (HEK293-T/17) (CRL-11268) were cultured at 37° C. with 5% CO2 in DMEM, including 100 μg/mL penicillin, 100 μg/mL streptomycin, and 10% heat-inactivated fetal bovine serum. Cells were split twice per week. For transfection, HEK293-T/17 cells were plated at 3×10^4 cells/cm^2 for pharmacology experiments and 5×10^3 cells/cm^2 for physiology experiments in fresh medium 24 h prior to transfection. Cells were transfected with AMPA or KA receptor plasmid cDNAs using Mirus Trans-IT transfection reagent (Minus Bio Corporation, Madison, Wis.) at a ratio of 1 μg cDNA: 3 μL Trans-1T reagent and maintained in transfection medium overnight followed by a media change the next day. Transfected cells were maintained in this medium until the experiment was conducted (48-72 h total post transfection).\nElectrophysiology. For analysis of recombinant receptors, HEK293-T/17 cells were co-transfected with 0.2 μg of iGluR cDNA and 0.05 μg of eGFP. For heterologous GluA1/GluA2 receptors, the GluA1:GluA2 cDNA ratio was 1:6. Two to three days post-transfection, eGFP-expressing cells were lifted from the cover slip and voltage clamped in whole cell mode. The internal solution contained (in mM) 30 CsF, 110 CsCl, 10 HEPES, 4 NaCl, 5 EGTA and 0.5 CaCl2 (pH 7.3), while the extracellular solution contained (in mM) 140 NaCl, 10 glucose, 10 Cs-HEPES, 3 KCl, 2 CaCl2 and 1 MgCl2 (pH 7.3). Borosilicate patch electrodes were pulled and fire polished to 2-3 MO resistance. Lifted cells were maintained in a laminar stream of extracellular solution from a triple-barreled flow pipe, which was rapidly translated using a piezoceramic bimorph for fast application of glutamate or kainate alone or in combination with various antagonists (the 10-90% rise time of glutamate-evoked currents was ˜1 ms). IKM compounds were applied for three minutes with analysis performed on the final one minute of drug application.\nStatistical analysis. At least three separate experiments were performed for each assay. For data involving three or more groups, a one-way analysis of variance (ANOVA) was performed with a Tukey-Kramer post hoc test for comparison amongst the groups. For data involving two groups, an unpaired student's t-test was performed; if the standard deviations between the two groups were statistically significant, a Welsh correction was added. If the data involving three or more groups or data involving two groups where multiple treatments were performed on the same sample, a repeated measures ANOVA and paired t-test were used, respectively, for analysis of significance. Dose-inhibition response curves were fitted, with the maximum value constrained to 100 and the minimum value constrained to values greater than or equal to zero, using the following equation in order to calculate the IC50 values: Response=minimum+(maximum−minimum)/(1+(IC50^hill slope/dose^hillslope)) All calculations for statistical analysis were carried out with Graphpad Prism4 software (La Jolla, Calif.). Data are presented as mean±S.E.M. with statistical significance set at p<0.05.",
  "note": "Where two headings read alike, the source gives them in different places.",
  "data": [
    {"smiles": "O=C(O)C[C@@]12O[C@H]3C=CCN[C@H]3C1CN[C@H]2C(=O)O", "note": "(some centres unmarked) [IKM-159]", "values": [
      {"measurement": "inhibition at 30 µM", "setting": "50 μM KA, read-out: percent inhibition of kainate-evoked steady state GluA4 currents", "result": "37 ± 4", "unit": "%"},
      {"measurement": "inhibition at 30 µM", "setting": "100 μM glutamate, 100 μM cyclothiazide, read-out: percent inhibition of steady-state GluA4 currents", "result": "30 ± 5", "unit": "%"},
      {"measurement": "inhibition at 30 µM", "setting": "500 μM KA, read-out: percent inhibition of kainate-evoked steady state GluA4 currents", "result": "21 ± 2", "unit": "%"},
      {"measurement": "inhibition at 30 µM", "setting": "500 μM glutamate, read-out: percent inhibition of GluA4 non-equilibrium peak currents", "result": "44 ± 8", "unit": "%"},
      {"measurement": "inhibition at 30 µM", "setting": "10 mM glutamate, 100 μM cyclothiazide, read-out: percent inhibition of steady-state GluA4 currents", "result": "7 ± 2", "unit": "%"},
      {"measurement": "inhibition at 30 µM", "setting": "10 mM glutamate, peak current, read-out: reduction from control GluA4 peak glutamate current amplitude (percent inhibition)", "result": "40 ± 4", "unit": "%"},
      {"measurement": "remaining activity at 30 µM", "setting": "HEK293T/17, 30 μM, 10 mM glutamate 100 ms, pre-applied at least one minute, read-out: GluA4 peak current as percent of control amplitude", "result": "60 ± 4", "unit": "%"},
      {"measurement": "IC50", "setting": "currents evoked by 10 mM glutamate", "result": "60 ± 8", "unit": "µM"}
    ]}
  ]
}
